Experimental findings from PMC9693052, “Synthesis of 2-Aminopyrimidine Derivatives and Their Evaluation as β-Glucuronidase Inhibitors: In Vitro and In Silico Studies” (Molecules, 2022) are described below.

Structures are written as SMILES.

A word on the melting point: it is the temperature of the solid-liquid transition. `COc1ccccc1Nc1cc(Cl)nc(N)n1` [Compound 2, 6-Chloro-4-(N-(2-methoxy)phenyl)-2,4-pyrimidinediamine] gave a melting point of 240 to 242 °C. As for `CC(C)c1ccccc1Nc1cc(Cl)nc(N)n1` [Compound 16, 6-Chloro-4-(N-(2-isopropyl)phenyl)-2,4-pyrimidinediamine], the figure is 170 to 172 °C; as for `CCCCCCCCOc1ccc(Nc2cc(Cl)nc(N)n2)cc1` [Compound 9], 185 to 187 °C.

`COc1cccc(Nc2cc(Cl)nc(N)n2)c1` [Compound 3, 6-Chloro-4-(N-(3-methoxy)phenyl)-2,4-pyrimidinediamine] showed a melting point of 178 to 180 °C.

In the case of `Nc1nc(Cl)cc(Nc2cccc(Cl)c2)n1` [Compound 13, 6-Chloro-4-(N-(3-chloro)phenyl)-2,4-pyrimidinediamine], the melting point fell in the range of 177 to 179 °C. `Nc1nc(Cl)cc(Nc2ccc(I)cc2)n1` [Compound 14, 6-Chloro-4-(N-(4-iodo)phenyl)-2,4-pyrimidinediamine] had a melting point of 250 to 252 °C.

`Nc1nc(Cl)cc(Nc2cccc(Br)c2)n1` [Compound 11, 6-Chloro-4-(N-(3-bromo)phenyl)-2,4-pyrimidinediamine] returned a melting point of 180 to 182 °C. As for `Nc1nc(Cl)cc(N2CCNCC2)n1` [Compound 24, 4-Chloro-6-(1-piperazinyl)-2-pyrimidinylamine], the figure is > 300 °C; as for `Cc1ccc(Cl)cc1Nc1cc(Cl)nc(N)n1` [Compound 19, 6-Chloro-4-(N-(5-chloro-2-methyl)phenyl)-2,4-pyrimidinediamine], 175 to 177 °C; as for `Nc1nc(Cl)cc(Nc2ccc(Cl)cc2)n1` [Compound 12, 6-Chloro-4-(N-(4-chloro)phenyl)-2,4-pyrimidinediamine], 182 to 184 °C. Regarding `Nc1nc(Cl)cc(N2CCN(c3ccccc3)CC2)n1` [Compound 25, 6-Chloro-6-(4-phenyl-1-piprazinyl)-2-pyrimidine amine], the melting point lay in the range of 200 to 202 °C. `Nc1nc(Cl)cc(NCc2ccco2)n1` [Compound 27, 6-Chloro-4-(N-(furan-2-yl)methyl)-2,4-pyrimidinediamine]: the melting point lay within 140 to 142 °C. The value for `CCCCc1ccc(Nc2cc(Cl)nc(N)n2)cc1` [Compound 23, 6-Chloro-4-(N-(4-n-butyl)phenyl)-2,4-pyrimidinediamine] was 175 to 177 °C; that for `CCc1ccc(Nc2cc(Cl)nc(N)n2)cc1` [Compound 22, 6-Chloro-4-(N-(4-ethyl)phenyl)-2,4-pyrimidinediamine] was 172 to 174 °C; that for `COc1cc(Nc2cc(Cl)nc(N)n2)ccc1C` [Compound 6, 6-Chloro-4-(N-(3-methoxy-4-methyl)phenyl)-2,4-pyrimidinediamine] was 245 to 247 °C. For the molecule `Nc1nc(Cl)cc(NCc2cccnc2)n1` [Compound 26, 6-Chloro-4-(N-(3-pyridinyl)methyl)-2,4-pyrimidinediamine], the melting point is 210 to 212 °C. The value for `Cc1ccc(C)c(Nc2cc(Cl)nc(N)n2)c1` [Compound 18, 6-Chloro-4-(N-(2,5-dimethyl)phenyl)-2,4-pyrimidinediamine] was 173 to 175 °C; that for `COc1ccc(Nc2cc(Cl)nc(N)n2)cc1` [Compound 4, 6-Chloro-4-(N-(4-methoxy)phenyl)-2,4-pyrimidinediamine] was 222 to 223 °C; that for `CCCCOc1ccc(Nc2cc(Cl)nc(N)n2)cc1` [Compound 8, 6-Chloro-4-(N-(4-n-butoxy)phenyl)-2,4-pyrimidinediamine] was 180 to 182 °C. The value for `Cc1ccc(Nc2cc(Cl)nc(N)n2)c(C)c1` [Compound 20, 6-Chloro-4-(N-(2,4-dimethyl)phenyl)-2,4-pyrimidinediamine] was 178 to 180 °C; that for `Cc1cccc(Nc2cc(Cl)nc(N)n2)c1C` [Compound 17, 6-Chloro-4-(N-(2,3-dimethyl)phenyl)-2,4-pyrimidinediamine] was 176 to 178 °C; that for `Nc1nc(Cl)cc(Nc2ccc(Br)cc2)n1` [Compound 10, 6-Chloro-4-(N-(4-bromo)phenyl)-2,4-pyrimidinediamine] was 190 to 192 °C. For the molecule `Nc1nc(Cl)cc(Nc2ccccc2)n1` [Compound 1, 6-Chloro-4-(N-phenyl)-2,4-pyrimidinediamine], the melting point is 175 to 177 °C.

In turn, `Cc1ccc(Nc2cc(Cl)nc(N)n2)cc1C` [Compound 21, 6-Chloro-4-(N-(3,4-dimethyl)phenyl)-2,4-pyrimidinediamine] showed a melting point of 179 to 180 °C. `COc1ccc(OC)c(Nc2cc(Cl)nc(N)n2)c1` [Compound 5, 6-Chloro-4-(N-(2,5-dimethoxy)phenyl)-2,4-pyrimidinediamine] yielded a melting point of 182 to 184 °C.
